Results as given in publication PMC3618943, “Interaction of Natural Dietary and Herbal Anionic Compounds and Flavonoids with Human Organic Anion Transporters 1 (SLC22A6), 3 (SLC22A8), and 4 (SLC22A11)” (Evidence-based Complementary and Alternative Medicine : eCAM, 2013).
“Also recorded” adds a separate entry of the source. Where a name gives a salt, the structure may show the parent alone. Read-outs that look alike come from different tables or passages of the source.

What was measured:
[1] = molecular target: T1, hOAT1 (SLC22A6) (Homo sapiens, UniProt Q4U2R8); test: Inhibition of hOAT1-mediated [3H]PAH uptake, cell accumulation assay in CHO-hOAT1 cells; format: cell-based; conditions: for Ki: assuming competitive inhibition, 1 min uptake, read-out: inhibition constant Ki for hOAT1; for Ki / effect on hOAT1-mediated PAH uptake (in words): 1 μM [3H]PAH
T1 construct: expressed in transfected cells
T1 sequence (Q4U2R8 1-550 isoform Q4U2R8-2): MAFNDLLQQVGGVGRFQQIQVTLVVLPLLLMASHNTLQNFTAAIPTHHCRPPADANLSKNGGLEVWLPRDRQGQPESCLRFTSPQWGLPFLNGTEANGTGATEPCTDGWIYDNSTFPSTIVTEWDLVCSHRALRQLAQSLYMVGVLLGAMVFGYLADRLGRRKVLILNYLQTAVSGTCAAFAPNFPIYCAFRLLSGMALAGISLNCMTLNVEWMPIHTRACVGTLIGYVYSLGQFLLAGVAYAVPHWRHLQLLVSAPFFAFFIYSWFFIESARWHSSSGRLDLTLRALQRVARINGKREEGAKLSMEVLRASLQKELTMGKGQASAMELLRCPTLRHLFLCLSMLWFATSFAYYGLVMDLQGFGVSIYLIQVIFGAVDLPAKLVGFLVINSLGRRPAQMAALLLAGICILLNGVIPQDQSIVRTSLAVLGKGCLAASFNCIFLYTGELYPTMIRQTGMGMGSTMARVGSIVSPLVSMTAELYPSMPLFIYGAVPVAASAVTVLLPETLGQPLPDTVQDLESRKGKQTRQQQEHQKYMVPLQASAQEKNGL
Procedure: (§1) The cell accumulation assay protocol was performed as described in our recent publications with minor modifications. In brief, 2 × 10^5 cells/well were seeded in 24-well tissue culture plates and grown in the absence of antibiotics for two days. For transport experiments cells were preincubated in transport buffer without substrates or inhibitors for 10 min after which time the buffer was replaced with 400 μL of fresh transport buffer containing 1 μM [^3H]PAH (0.5 μCi/mL) or [^3H]ES (0.25 μCi/mL) with or without test compounds. After incubation for times specified in the figure legends, cellular uptake was quenched by quickly rinsing each well three times with fresh ice-cold transport buffer. Cells were lysed with 1 M NaOH and radioactivity was measured with a liquid scintillation counter and reported as picomoles of substrate per milligram total protein. All intracellular uptake data were corrected for background accumulation in corresponding empty vector transfected control cells. Kinetic calculations were performed using GraphPad Prism Software version 5.0 (GraphPad Software Inc., San Diego, CA). The half maximal inhibitory concentrations (IC50) and inhibitory constants (K i) were calculated using nonlinear regression with the appropriate models. Results were confirmed by repeating all experiments at least three times with triplicate wells for each data point.
Ten-minute uptake of [^3H]PAH (1 μM) was measured in CHO-hOAT1 cells in the absence and presence of test compounds (50 μM) or probenecid (1000 μM). Data represent hOAT1-mediated transport specifically, that is, data have been corrected for background PAH accumulation measured in empty vector transfected cells. Values are mean ± S.D. of triplicate values from a representative experiment. ** denotes P < 0.01, and *** denotes P < 0.001 as determined by one-way ANOVA followed by Dunnett's t-test.
One-minute uptake of [^3H]PAH (1 μM) in CHO-hOAT1 cells was measured in the presence of increasing concentrations (10^−7 to 5 × 10^−4 M) of test compounds. Data were corrected by subtracting background PAH accumulation measured in empty vector transfected cells. IC50 values were determined with nonlinear regression and the “log(inhibitor) versus response” model using GraphPad Prism software. Experiments were repeated three times with triplicate samples and graphs shown are from representative experiments with values plotted as mean ± S.D. (n = 3). The data were used to generate mean IC50 ± S.E.M. estimates.

[2] = molecular target: T2, hOAT3 (SLC22A8) (Homo sapiens, UniProt Q8TCC7); test: Inhibition of hOAT3-mediated [3H]ES uptake, cell accumulation assay in HEK-hOAT3 cells; format: cell-based; conditions: 10 min uptake; for inhibition at 50 µM / effect on hOAT3-mediated ES uptake (in words): 50 μM test compound; for inhibition at 50 µM: 1 μM [3H]ES (50-fold excess)
T2 construct: expressed in transfected cells
T2 sequence (Q8TCC7 1-542): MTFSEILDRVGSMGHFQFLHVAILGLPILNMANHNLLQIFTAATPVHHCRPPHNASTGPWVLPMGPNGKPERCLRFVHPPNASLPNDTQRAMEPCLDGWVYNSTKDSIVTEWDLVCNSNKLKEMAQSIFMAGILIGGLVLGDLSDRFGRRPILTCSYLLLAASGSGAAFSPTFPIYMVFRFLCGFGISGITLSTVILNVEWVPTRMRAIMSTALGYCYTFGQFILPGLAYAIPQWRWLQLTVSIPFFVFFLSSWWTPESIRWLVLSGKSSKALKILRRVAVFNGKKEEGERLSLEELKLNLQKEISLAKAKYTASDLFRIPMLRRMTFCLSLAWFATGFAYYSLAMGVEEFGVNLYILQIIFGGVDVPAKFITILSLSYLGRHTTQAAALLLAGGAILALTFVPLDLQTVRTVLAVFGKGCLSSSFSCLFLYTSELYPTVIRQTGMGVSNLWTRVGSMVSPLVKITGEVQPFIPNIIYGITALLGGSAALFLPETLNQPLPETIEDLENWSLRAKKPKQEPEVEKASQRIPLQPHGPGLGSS
Procedure: (§2) Derivation and culture of stably transfected Chinese hamster ovary (CHO) cells expressing hOAT1 (CHO-hOAT1) and hOAT4 (CHO-hOAT4), stably transfected human embryonic kidney 293 (HEK) cells expressing hOAT3 (HEK-hOAT3), and their corresponding empty vector transfected background control cell lines, have been described previously.
as §1, with “point. […]” for “point.”
Figure 4 Inhibitory effects of the nine test compounds on hOAT3-mediated ES uptake. Ten-minute uptake of [^3H]ES (1 μM) was measured in HEK-hOAT3 cells in the absence and presence of test compounds (50 μM) or probenecid (1000 μM). Data represent hOAT3-mediated transport specifically, that is, data have been corrected for background ES accumulation measured in empty vector transfected cells. Values are mean ± S.D. of triplicate values from a representative experiment. * denotes P < 0.05, ** denotes P < 0.01, and *** denotes p < 0.001 as determined by one-way ANOVA followed by Dunnett's t-test.

[3] = molecular target: T1, hOAT1 (SLC22A6); test: Inhibition of hOAT1-mediated [3H]PAH uptake, cell accumulation assay in CHO-hOAT1 cells; format: cell-based; conditions: dose-response 0.01–500 μM, 1 μM [3H]PAH, 1 min uptake, mean ± S.E.M., read-out: IC50 on hOAT1-mediated PAH transport
[4] = molecular target: T3, hOAT4 (SLC22A11) (Homo sapiens, UniProt Q9NSA0); test: Inhibition of hOAT4-mediated [3H]ES uptake, cell accumulation assay in CHO-hOAT4 cells; format: cell-based
T3 construct: expressed in transfected cells
T3 sequence (Q9NSA0 1-550): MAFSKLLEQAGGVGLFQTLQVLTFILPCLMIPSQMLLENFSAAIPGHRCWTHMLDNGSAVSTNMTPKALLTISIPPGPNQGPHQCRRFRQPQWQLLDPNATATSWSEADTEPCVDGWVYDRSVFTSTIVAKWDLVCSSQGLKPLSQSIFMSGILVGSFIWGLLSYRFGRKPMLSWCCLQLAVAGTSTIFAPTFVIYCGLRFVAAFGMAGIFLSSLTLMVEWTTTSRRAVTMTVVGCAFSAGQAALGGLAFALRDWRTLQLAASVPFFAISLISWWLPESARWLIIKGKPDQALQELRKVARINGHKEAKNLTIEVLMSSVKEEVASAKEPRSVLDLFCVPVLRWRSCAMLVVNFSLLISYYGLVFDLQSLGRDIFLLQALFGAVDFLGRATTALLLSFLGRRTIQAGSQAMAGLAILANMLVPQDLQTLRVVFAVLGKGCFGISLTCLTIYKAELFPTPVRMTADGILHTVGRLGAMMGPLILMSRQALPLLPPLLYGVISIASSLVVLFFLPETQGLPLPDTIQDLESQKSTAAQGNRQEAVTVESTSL
Procedure: as §2
as §1, with “point. […]” for “point.”
Figure 5 Inhibitory effects of the nine test compounds on hOAT4-mediated ES uptake. Ten minute uptake of [^3H]ES (1 μM) was measured in CHO-hOAT4 cells in the absence and presence of test compounds (50 μM) or ES (1000 μM for self-inhibition). Data represent hOAT4-mediated transport specifically, that is, data have been corrected for background ES accumulation measured in empty vector transfected cells. Values are mean ± S.D. of triplicate values from a representative experiment. * denotes P < 0.05, and *** denotes P < 0.001 as determined by one-way ANOVA followed by Dunnett's t-test.

[5] = human subjects, cited from earlier work
[6] = molecular target: T2, hOAT3 (SLC22A8); set-up: method as in PMID 22877817; conditions: linear uptake for initial 1 min; cited from earlier work
[7] = 50 μM test compound, 1 μM [3H]PAH (50-fold excess), 10 min uptake
[8] = 50 μM test compound, 1 μM [3H]ES, 10 min uptake, CHO-hOAT4 cells
[9] = 50 μM test compound, 10 min uptake

SMILES | inhibition at 50 µM [1, 7] | inhibition at 50 µM [2] | effect on hOAT4-mediated ES uptake (in words) [4, 8] | effect on hOAT3-mediated ES uptake (in words) ([2]; 1 μM [3H]ES) | effect on hOAT1-mediated PAH uptake (in words) [1, 9] | also measured
O=C(/C=C/c1ccc(O)c(O)c1)O[C@@H]1C[C@@](OC(=O)/C=C/c2ccc(O)c(O)c2)(C(=O)O)C[C@@H](O)[C@@H]1O [1,3-Dicaffeoylquinic acid, 1,3-dicaffeoylquinic acid] | 64% | 41% |  |  |  | Ki [1]: 1100 ± 200 nM; IC50 [3]: 1200 ± 400 nM
Oc1cc(O)c2c(c1)O[C@H](c1ccc(O)c(O)c1)[C@@H](O)C2 [Catechin] |  |  |  | failed to produce significant inhibition | no inhibition | inhibition at 50 µM [4, 8]: 32%; IC50 ([4]; inferred from level of inhibition at 50 μM, no kinetic study, read-out: IC50 on hOAT4 transport activity): > 50000 nM
C[C@]12CC[C@@H]3c4ccc(OS(=O)(=O)O)cc4CC[C@H]3[C@@H]1CCC2=O [ES, estrone sulfate, reference compound] |  |  |  |  |  | inhibition of hOAT4-mediated ES uptake (self-inhibition) ([4]; unlabeled ES 1000 μM, 1 μM [3H]ES, 10 min uptake, CHO-hOAT4 cells): > 96%; K m of ES uptake in hOAT3 expressing cells [6]: 14.5 µM
Oc1cc(O)c2c(c1)O[C@H](c1ccc(O)c(O)c1)[C@H](O)C2 [Epicatechin] |  | 30 to 35% |  |  | no inhibition | Cmax ([5]; oral, 37 mg): 200 nM
C[C@H]1[C@H](C)CC[C@]2(C(=O)O)CC[C@]3(C)C(=CC[C@@H]4[C@@]5(C)CC[C@H](O)C(C)(C)[C@@H]5CC[C@]43C)[C@H]12 [Ursolic acid] |  |  | without effect | failed to produce significant inhibition; also recorded: without effect | significant stimulation of uptake | Cmax ([5]; i.v., 186 mg): 7400 nM
CCCCCCC=CCCCCCCCc1cccc(O)c1C(=O)O [ginkgolic acid (15 : 1)] |  | 30 to 35% |  |  |  | 
CCCCCCC=CCCCCCCCCCc1cccc(O)c1C(=O)O [ginkgolic acid (17 : 1)] | 42% | 41% |  |  |  | 
CCCN(CCC)S(=O)(=O)c1ccc(C(=O)O)cc1 [probenecid, reference compound] |  |  |  |  |  | inhibition at 1000 µM ([2]; probenecid 1000 μM, 1 μM [3H]ES): > 96%

Further lines, with some results ahead:

inhibition at 50 µM [1, 7] | inhibition at 50 µM [2] | effect on hOAT4-mediated ES uptake (in words) [4, 8] | effect on hOAT3-mediated ES uptake (in words) ([2]; 1 μM [3H]ES) | effect on hOAT1-mediated PAH uptake (in words) [1, 9] | SMILES | also measured
22% | 30 to 35% | significant stimulation of ES uptake |  |  | O=C(C=Cc1ccc(O)c(O)c1)OC1CC(OC(=O)C=Cc2ccc(O)c(O)c2)(C(=O)O)CC(O)C1O (stereo not shown) [1,5-Dicaffeoylquinic acid, 1,5-dicaffeoylquinic acid] | Cmax ([5]; oral, 600 mg): 140 nM
 |  | significant stimulation of ES uptake | failed to produce significant inhibition |  | CC1(C)[C@@H](O)CC[C@]2(C)[C@H]3C(=O)C=C4[C@@H]5C[C@@](C)(C(=O)O)CC[C@]5(C)CC[C@@]4(C)[C@]3(C)CC[C@@H]12 [18β-glycyrrhetinic acid] | inhibition of hOAT1-mediated PAH uptake [1, 7]: 56%; Ki [1]: 2500 ± 200 nM; Cmax ([5]; oral, 130–144 mg glycyrrhizin, assuming plasma 18α- : 18β-glycyrrhetinic acid about 1 : 3): 110 to 2900 nM; IC50 [3]: 2700 ± 200 nM
